For one assay, the target named is human CB1 receptor (Homo sapiens (Human), UniProt P21554). As to the kind of experiment: cAMP assay, CHO cells expressing human CB1 receptors. Conditions: functional cAMP assay, read-out: CB1 hcAMP EC50. Type of assay: cell-based. An outline of the steps:
(§1)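 Readout: TR-FRET cAMP detection at 730 and 645 nm with 355 nm excitation, quantified from a standard curve spanning 10 μM to 0.13 nM cAMP. Human CB1- or CB2-expressing CHO cells were exposed to compound for 30 min at 30 °C in KRB buffer containing 1 mM IBMX. EC50 derived.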

The next assay deals with human CB2 receptor (Homo sapiens (Human), UniProt P34972). As to the kind of experiment: cAMP assay, CHO cells expressing human CB2 receptors. Type of assay: cell-based. Conditions: functional cAMP assay, read-out: CB2 hcAMP EC50. In a few lines:
as §1
A general note: cAMP levels reflect the balance of adenylyl cyclase and phosphodiesterase activity.

Structures are written as SMILES.

human CB1 receptor, sequence (P21554 whole entry): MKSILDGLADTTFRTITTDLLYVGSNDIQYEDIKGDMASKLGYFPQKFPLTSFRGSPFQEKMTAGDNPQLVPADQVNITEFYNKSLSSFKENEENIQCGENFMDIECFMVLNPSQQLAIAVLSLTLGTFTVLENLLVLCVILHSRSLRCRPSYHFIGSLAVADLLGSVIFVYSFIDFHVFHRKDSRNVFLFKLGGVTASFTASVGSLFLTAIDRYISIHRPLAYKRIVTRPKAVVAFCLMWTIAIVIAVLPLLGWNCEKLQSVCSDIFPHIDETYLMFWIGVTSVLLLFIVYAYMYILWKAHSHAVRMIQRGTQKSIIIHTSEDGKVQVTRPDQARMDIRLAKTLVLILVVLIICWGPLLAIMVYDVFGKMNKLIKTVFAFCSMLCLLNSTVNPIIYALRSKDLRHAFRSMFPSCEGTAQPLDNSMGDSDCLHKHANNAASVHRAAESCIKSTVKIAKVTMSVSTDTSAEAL
human CB2 receptor, sequence (P34972 whole entry): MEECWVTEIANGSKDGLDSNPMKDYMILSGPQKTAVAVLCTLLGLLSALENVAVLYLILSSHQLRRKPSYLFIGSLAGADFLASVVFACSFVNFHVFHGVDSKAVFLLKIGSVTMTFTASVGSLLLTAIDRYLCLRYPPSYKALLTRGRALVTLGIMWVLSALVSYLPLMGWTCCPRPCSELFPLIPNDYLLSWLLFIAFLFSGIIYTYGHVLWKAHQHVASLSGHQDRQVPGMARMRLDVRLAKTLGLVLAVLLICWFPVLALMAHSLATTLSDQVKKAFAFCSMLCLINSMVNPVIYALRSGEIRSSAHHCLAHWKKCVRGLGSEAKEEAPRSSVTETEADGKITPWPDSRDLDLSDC

One may read the EC50 as the midpoint of the concentration-response curve. On to `CC(C)(C)Nc1nc(N2CCC(F)(F)C2)c2nnn(Cc3ccccc3Cl)c2n1` [Example 12, N-tert-Butyl-3-[(2-chlorophenyl)methyl]-7-(3,3-difluoropyrrolidin-1-yl)triazolo[4,5-d]pyrimidin-5-amine], for which the values for the EC50 on human CB1 receptor and on human CB2 receptor were 365 nM and 0.9 nM, respectively.

On to `Cc1nonc1Cn1nnc2c(N3CCC(F)(F)C3)nc(OCC(C)(C)C)nc21` [Example 67, 3-[[7-(3,3-Difluoropyrrolidin-1-yl)-5-(2,2-dimethylpropoxy)triazolo[4,5-d]pyrimidin-3-yl]methyl]-4-methyl-1,2,5-oxadiazole], for which the EC50 on human CB1 receptor is above 10000 nM; at human CB2 receptor, 1.7 nM.

As for `FC1(F)CCN(c2nc(OC3CCC3)nc3c2nnn3Cc2ccccc2Cl)C1` [Example 48, 3-[(2-Chlorophenyl)methyl]-5-cyclobutyloxy-7-(3,3-difluoropyrrolidin-1-yl)triazolo[4,5-d]pyrimidine], the EC50 was above 10000 nM at human CB1 receptor and 1.7 nM at human CB2 receptor.

Turning to `CC(C)(O)COc1nc(N2CCC(F)(F)C2)c2nnn(Cc3ccccc3Cl)c2n1` [Example 58, 1-[3-[(2-Chlorophenyl)methyl]-7-(3,3-difluoropyrrolidin-1-yl)triazolo[4,5-d]pyrimidin-5-yl]oxy-2-methylpropan-2-ol], the EC50 at human CB1 receptor was above 10000 nM; on human CB2 receptor it was 15.7 nM.

The values above are taken from patent US9593123B2, “Triazolo[4,5-D]pyrimidine derivatives” (Hoffmann-La Roche Inc., priority 2013, dated 2017).
